Measurements reported in patent publication US20250145665A1, “MACROCYCLIC PEPTIDES USEFUL AS MODULATORS OF TNF ALPHA” (Bristol-Myers Squibb Company, priority 2023, published 2025).
Starred links: 1 amine or outer side, 2 acyl side, 3 side chain; linkers in the order of their positions; H or OH if unused. Positions of bridges follow the written chain, without caps; N, C: chain ends. Non-standard residues stand in square brackets, D forms with d. Residues, ends and D or L forms follow the SMILES beside them. *: point of attachment. X5 = Cn1nc(C(=O)Nc2ccc(-c3ccc(C[C@H](N[*:1])C(=O)[*:2])cc3)cc2)c2ccccc21; Bip(4'-NH) = O=C([C@H](Cc1ccc(-c2ccc(N[*:3])cc2)cc1)N[*:1])[*:2]; Indazole3carbonyl(1-CH2COOH) = O=C(O)Cn1nc(C(=O)*)c2ccccc21; X72 = N=C(N)Nc1ccc(CCNC(=N)NCCC[C@@H](N[*:1])C(=O)[*:2])cc1; X25 = N=C(N)Nc1cccc(CNC(=N)NCCC[C@@H](N[*:1])C(=O)[*:2])c1; X1 = N=C(NCCC[C@@H](N[*:1])C(=O)[*:2])NCCc1ccc2ccccc2c1; X7 = N=C(NCCC[C@@H](N[*:1])C(=O)[*:2])NCc1ccc2occc2c1; X55 = N=C(NCCC[C@@H](N[*:1])C(=O)[*:2])NCCc1cccnc1; Ala(morpholin-4-yl) = N[C@@H](CN1CCOCC1)C(=O)O; Bip = N[C@@H](Cc1ccc(-c2ccccc2)cc1)C(=O)O; Sar = CNCC(=O)O

target: TNFα (Homo sapiens, UniProt P01375); assay: TNF-Induced HEK-Blue Assay; type: cell-based; details: not given
Sequence (P01375 77-233 limits assumed): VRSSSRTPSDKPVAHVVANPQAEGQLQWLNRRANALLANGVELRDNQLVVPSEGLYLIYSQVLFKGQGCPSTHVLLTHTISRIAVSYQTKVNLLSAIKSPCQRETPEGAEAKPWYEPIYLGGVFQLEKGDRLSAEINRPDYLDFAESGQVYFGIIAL

`CC(C)C[C@@H]1NC(=O)[C@H](CCCNC(=N)N)NC(=O)[C@H](C(C)C)NC(=O)[C@@H]2CCCN2C(=O)[C@H](C(C)C)NC(=O)[C@@H](CCCNC(=N)NCCc2ccc3ccccc3c2)NC(=O)[C@H](CC(=O)O)NC(=O)[C@@H]2CCCN2C(=O)CN(C)C(=O)[C@H](Cc2ccc(-c3ccc(NC(=O)c4nn(CC(=O)O)c5ccccc45)cc3)cc2)NC(=O)[C@H](Cc2ccc(-c3ccccc3)cc2)NC(=O)[C@H](CN2CCOCC2)NC(=O)CSC[C@@H](C(=O)NCC(N)=O)NC1=O` [Example 433] ({CH2CO}-[Ala(morpholin-4-yl)][Bip][Bip(4'-NH)](Indazole3carbonyl(1-CH2COOH))[Sar]PD[X1]VPVRLCG-NH2; thioether N-13) was tested. Which IC50 did it give?
The IC50 was 50 to 200 nM.

For `CC(C)C[C@@H]1NC(=O)[C@H](CCCNC(=N)N)NC(=O)[C@H](C(C)C)NC(=O)[C@@H]2CCCN2C(=O)[C@H](C(C)C)NC(=O)[C@@H](CCCNC(=N)NCCc2cccnc2)NC(=O)[C@H](CC(=O)O)NC(=O)[C@@H]2CCCN2C(=O)CN(C)C(=O)[C@H](Cc2ccc(-c3ccc(NC(=O)c4nn(CC(=O)O)c5ccccc45)cc3)cc2)NC(=O)[C@H](Cc2ccc(-c3ccccc3)cc2)NC(=O)[C@H](CN2CCOCC2)NC(=O)CSC[C@@H](C(=O)NCC(N)=O)NC1=O` [Example 434] ({CH2CO}-[Ala(morpholin-4-yl)][Bip][Bip(4'-NH)](Indazole3carbonyl(1-CH2COOH))[Sar]PD[X55]VPVRLCG-NH2; thioether N-13), which IC50 is on record?
The IC50 was 50 to 200 nM.

Which IC50 does the source give for `CC(C)C[C@@H]1NC(=O)[C@H](CCCNC(=N)N)NC(=O)[C@H](C(C)C)NC(=O)[C@@H]2CCCN2C(=O)[C@H](C(C)C)NC(=O)[C@@H](CCCNC(=N)NCc2cccc(NC(=N)N)c2)NC(=O)[C@H](CC(=O)O)NC(=O)[C@@H]2CCCN2C(=O)CN(C)C(=O)[C@H](Cc2ccc(-c3ccc(NC(=O)c4nn(CC(=O)O)c5ccccc45)cc3)cc2)NC(=O)[C@H](Cc2ccc(-c3ccccc3)cc2)NC(=O)[C@H](CN2CCOCC2)NC(=O)CSC[C@@H](C(=O)NCC(N)=O)NC1=O` [Example 435] ({CH2CO}-[Ala(morpholin-4-yl)][Bip][Bip(4'-NH)](Indazole3carbonyl(1-CH2COOH))[Sar]PD[X25]VPVRLCG-NH2; thioether N-13) here?
Its IC50 is < 50 nM.

Which IC50 does the source give for `CC(C)C[C@@H]1NC(=O)[C@H](CCCNC(=N)N)NC(=O)[C@H](C(C)C)NC(=O)[C@@H]2CCCN2C(=O)[C@H](C(C)C)NC(=O)[C@@H](CCCNC(=N)NCCc2ccc(NC(=N)N)cc2)NC(=O)[C@H](CC(=O)O)NC(=O)[C@@H]2CCCN2C(=O)CN(C)C(=O)[C@H](Cc2ccc(-c3ccc(NC(=O)c4nn(CC(=O)O)c5ccccc45)cc3)cc2)NC(=O)[C@H](Cc2ccc(-c3ccccc3)cc2)NC(=O)[C@H](CN2CCOCC2)NC(=O)CSC[C@@H](C(=O)NCC(N)=O)NC1=O` [Example 436] ({CH2CO}-[Ala(morpholin-4-yl)][Bip][Bip(4'-NH)](Indazole3carbonyl(1-CH2COOH))[Sar]PD[X72]VPVRLCG-NH2; thioether N-13) here?
The IC50 was < 50 nM.

How did the IC50 turn out when `CC(C)C[C@@H]1NC(=O)[C@H](CCCNC(=N)N)NC(=O)[C@H](C(C)C)NC(=O)[C@@H]2CCCN2C(=O)[C@H](C(C)C)NC(=O)[C@@H](CCCNC(=N)NCc2ccc3occc3c2)NC(=O)[C@H](CC(=O)O)NC(=O)[C@@H]2CCCN2C(=O)CN(C)C(=O)[C@H](Cc2ccc(-c3ccc(NC(=O)c4nn(CC(=O)O)c5ccccc45)cc3)cc2)NC(=O)[C@H](Cc2ccc(-c3ccccc3)cc2)NC(=O)[C@H](CN2CCOCC2)NC(=O)CSC[C@@H](C(=O)NCC(N)=O)NC1=O` [Example 449] ({CH2CO}-[Ala(morpholin-4-yl)][Bip][Bip(4'-NH)](Indazole3carbonyl(1-CH2COOH))[Sar]PD[X7]VPVRLCG-NH2; thioether N-13) was run?
The IC50 was < 50 nM.

same assay, conditions: HEK-Blue-CD40L cells, NF-kB-driven secreted alkaline phosphatase reporter; TNFα 0.5 ng/ml; 18 h; read-out: TNF induced HEK-Blue assay IC50 value

Which IC50 does the source give for `CC(C)C[C@@H]1NC(=O)[C@H](CCCNC(=N)N)NC(=O)[C@H](C(C)C)NC(=O)[C@@H]2CCCN2C(=O)[C@H](C(C)C)NC(=O)[C@@H](CCCNC(=N)NCc2cccc(NC(=N)N)c2)NC(=O)[C@H](CC(=O)O)NC(=O)[C@@H]2CCCN2C(=O)CN(C)C(=O)[C@H](Cc2ccc(-c3ccc(NC(=O)c4nn(C)c5ccccc45)cc3)cc2)NC(=O)[C@H](Cc2ccc(-c3ccccc3)cc2)NC(=O)[C@H](CN2CCOCC2)NC(=O)CSC[C@@H](C(=O)NCC(N)=O)NC1=O` [Example 438] ({CH2CO}-[Ala(morpholin-4-yl)][Bip][X5][Sar]PD[X25]VPVRLCG-NH2; thioether N-13) here?
Its IC50 is 50 to 200 nM.

`CC(C)C[C@@H]1NC(=O)[C@H](CCCNC(=N)N)NC(=O)[C@H](C(C)C)NC(=O)[C@@H]2CCCN2C(=O)[C@H](C(C)C)NC(=O)[C@@H](CCCNC(=N)NCCc2ccc(NC(=N)N)cc2)NC(=O)[C@H](CC(=O)O)NC(=O)[C@@H]2CCCN2C(=O)CN(C)C(=O)[C@H](Cc2ccc(-c3ccc(NC(=O)c4nn(C)c5ccccc45)cc3)cc2)NC(=O)[C@H](Cc2ccc(-c3ccccc3)cc2)NC(=O)[C@H](CN2CCOCC2)NC(=O)CSC[C@@H](C(=O)NCC(N)=O)NC1=O` [Example 439] ({CH2CO}-[Ala(morpholin-4-yl)][Bip][X5][Sar]PD[X72]VPVRLCG-NH2; thioether N-13) was tested. Which IC50 did it give?
The IC50 was 50 to 200 nM.
